From patent publication US20090280549A1, “Method for Treating Body Fluid” (priority 2005, published 2009)

Experiments:
neutrophils = experiment: ATX-S10•Na(II) uptake into neutrophils; type: cell-based, human
Method: (§1) After labeling the compound represented by formula (II) above (hereinafter referred to as “ATX-S10•Na(II)”) with ^14C, the ATX-S10•Na(II) was dissolved in saline at a concentration of approximately 1×10^−3 mol/L, and the solution was filtered and sterilized with a 0.22 μm filter and then diluted with 1% FBS (fetal bovine serum)-containing RPMI1640 medium to prepare a 5×10^−5 mol/L ATX-S10•Na(II)-added solution.
Erythrocytes, platelets, neutrophils and lymphocytes were prepared from blood sampled from three healthy persons (designated as A, B and C).
The erythrocytes, neutrophils and lymphocytes were prepared from heparinized blood. The heparinized blood and 6% dextran-added saline were mixed in a proportion of 3:1 (v:v), and the mixture was allowed to stand at room temperature for 30 minutes. The upper layer leukocyte fraction was centrifuged with a centrifuge tube (900 rpm, 10 minutes, 4° C.), and the precipitate was suspended in saline, superposed onto Ficoll-Hypaque® solution and centrifuged (1600 rpm, 30 minutes, room temperature). The intermediate layer was used as the lymphocyte fraction (containing monocytes) and the precipitate was used as the neutrophil fraction. The neutrophil fraction was suspended in ice-cold 0.2% NaCl solution for hemolysis, and then an equivalent amount of ice-cold 1.6% NaCl solution was immediately added to restore isotonicity. The crude erythrocyte fraction was diluted with KRP (Krebs-Ringer phosphate buffer) and centrifuged (2000 rpm, 5 minutes, 4° C.), and the buffy coat (leukocyte layer) was removed. This procedure was further repeated 4 times to yield the erythrocyte fraction.
(§2) After adding 400 μL of the cell suspension and 100 μL of the ATX-S10•Na(II)-added solution to each well of a 48-well microplate and mixing, the mixtures were incubated with a CO2 incubator (37° C., 5% CO2) or allowed to stand in a refrigerating chamber (approximately 4° C.). The cells were separated immediately after addition (0 hours after addition) and 1 hour, 3 hours, 20 hours and 44 hours after addition, and ATX-S10•Na(II) uptake into the cells (including cell surface binding) was measured. The uptake with standing at 4° C. corresponds to cell surface binding, and the value of the uptake with incubation at 37° C. minus the uptake with standing at 4° C. is presumed to correspond to the substantial ATX-S 10 Na(II) uptake for each type of cell.
(§3) The cell separation and uptake measurement were performed in the following manner. Specifically, 1 mL of 1.5% BSA (bovine serum albumin)-containing PBS solution (ice-cold) was placed in a 1.5 mL tube. The suspension of cells to be separated was gently pipetted and mixed, and a 100 μL portion was taken and superposed onto the 1.5% BSA-containing PBS solution. For each well, the cell suspension (300 μL) was dispensed into three tubes (n=3). After centrifugation (3200 rpm, 10 minutes, 4° C.), the medium and 1.5% BSA-containing PBS solution were removed by suction, and then the precipitate was suspended in 100 μL of PBS(−), and 1 mL of PBS(−) was further added and mixed therewith. After additional centrifugation (3000 rpm, 10 minutes, 4° C.), the supernatant was removed by suction, and the bottom of the tube, where the precipitate is present, was cut out and transferred to a counting vial. Then 4.5 mL of liquid scintillator was added and mixed therewith, and the radioactivity was measured for 5 minutes using a liquid scintillation counter. The measured radioactivity was used to calculate the ATX-S10•Na(II) uptake (pmol/10^5 cells) into the cells.
Uptake into neutrophils was measured also with addition of N-formyl-L-methionyl-L-leucyl-L-phenylalanine (hereinafter referred to as “fMLP”) (final concentration: 1×10^−7 mol/L or 1×10^−6 mol/L) or phorbol 12-myristate 13-acetate (hereinafter referred to as “PMA”) (final concentration: 1×10^−7 mol/L) to the cell suspension together with ATX-S10•Na(II).

[1] = system: A3/KAW cells (human malignant lymphoma cells); experiment: ATX-S10•Na(II) uptake into A3/KAW cells; type: cell-based; conditions: for ATX-S10•Na(II) uptake: A3/KAW
Method: as §1
(§4) As malignant lymphoma cells and leukemia cells, there were used THP-1 cells (human monocytic leukemia cells), EoL-1 cells (human eosinophilic leukemia cells), A3/KAW cells (human malignant lymphoma cells) and KG-1 cells (human acute myeloid leukemia cells). All of the cells were cultured using 10% FBS-containing RPMI1640 medium, with subculturing 1 to 2 times per week during the culturing. The THP-1 cells and EoL-1 cells were obtained from RIKEN BioResource Center, and the A3/KAW cells and KG-1 cells were obtained from Japan Health Sciences Foundation.
as §2, §3

[2] = system: EoL-1 cells (human eosinophilic leukemia cells); experiment: ATX-S10•Na(II) uptake into EoL-1 cells; type: cell-based; conditions: for ATX-S10•Na(II) uptake: EoL-1
Method: as §1, §4, §2, §3

[3] = 0 hr, immediately after addition

C=Cc1c(C)c2cc3nc(cc4[nH]c(cc5nc(cc1[nH]2)C(C)=C5CCC(=O)NC(CC(=O)[O-])C(=O)[O-])c(CCC(=O)NC(CC(=O)[O-])C(=O)[O-])c4C)C(C)(O)/C3=C\C=NO.[Na+].[Na+].[Na+].[Na+] (centres unmarked) [ATX-S10•Na(II)]
ATX-S10•Na(II) uptake (neutrophils; Neutrophil (A), donor A, 0 hr, immediately after addition): 0.21 pmol/10^5 cells
ATX-S10•Na(II) uptake (neutrophils; Neutrophil (A), 3 hr, incubation at 37° C.): 0.38 pmol/10^5 cells
ATX-S10•Na(II) uptake (neutrophils; Neutrophil (A), 3 hr, standing at 4° C.): 0.46 pmol/10^5 cells
ATX-S10•Na(II) uptake (neutrophils; Neutrophil (A), 20 hr, incubation at 37° C.): 4.93 pmol/10^5 cells
ATX-S10•Na(II) uptake (neutrophils; Neutrophil (A), 20 hr, standing at 4° C.): 0.57 pmol/10^5 cells
ATX-S10•Na(II) uptake (neutrophils; Neutrophil (B), 3 hr, incubation at 37° C.): 0.40 pmol/10^5 cells
ATX-S10•Na(II) uptake (neutrophils; Neutrophil (B), 3 hr, standing at 4° C.): 1.27 pmol/10^5 cells
ATX-S10•Na(II) uptake (neutrophils; Neutrophil (B), 20 hr, incubation at 37° C.): 4.04 pmol/10^5 cells
ATX-S10•Na(II) uptake (neutrophils; Neutrophil (B), 20 hr, standing at 4° C.): 0.47 pmol/10^5 cells
ATX-S10•Na(II) uptake (neutrophils; Neutrophil (B), 44 hr, incubation at 37° C.): 16.32 pmol/10^5 cells
ATX-S10•Na(II) uptake (neutrophils; Neutrophil (B), 44 hr, standing at 4° C.): 0.68 pmol/10^5 cells
ATX-S10•Na(II) uptake (neutrophils; Neutrophil (C), 3 hr, incubation at 37° C.): 0.72 pmol/10^5 cells
ATX-S10•Na(II) uptake (neutrophils; Neutrophil (C), 3 hr, standing at 4° C.): 0.36 pmol/10^5 cells
ATX-S10•Na(II) uptake (neutrophils; Neutrophil (C), 20 hr, incubation at 37° C.): 10.13 pmol/10^5 cells
ATX-S10•Na(II) uptake (neutrophils; Neutrophil (C), 20 hr, standing at 4° C.): 0.95 pmol/10^5 cells
ATX-S10•Na(II) uptake (neutrophils; Neutrophil stimulated with 1×10^−6 mol/L fMLP, 3 hr, incubation at 37° C.): 0.75 pmol/10^5 cells
ATX-S10•Na(II) uptake (neutrophils; Neutrophil stimulated with 1×10^−6 mol/L fMLP, 3 hr, standing at 4° C.): 2.02 pmol/10^5 cells
ATX-S10•Na(II) uptake (neutrophils; Neutrophil stimulated with 1×10^−6 mol/L fMLP, 20 hr, incubation at 37° C.): 3.57 pmol/10^5 cells
ATX-S10•Na(II) uptake (neutrophils; Neutrophil stimulated with 1×10^−6 mol/L fMLP, 20 hr, standing at 4° C.): 0.57 pmol/10^5 cells
ATX-S10•Na(II) uptake (neutrophils; Neutrophil stimulated with 1×10^−6 mol/L fMLP, 44 hr, incubation at 37° C.): 14.14 pmol/10^5 cells
ATX-S10•Na(II) uptake (neutrophils; Neutrophil stimulated with 1×10^−6 mol/L fMLP, 44 hr, standing at 4° C.): 3.28 pmol/10^5 cells
ATX-S10•Na(II) uptake (neutrophils; Neutrophil stimulated with 1×10^−7 mol/L PMA, 3 hr, incubation at 37° C.): 4.45 pmol/10^5 cells
ATX-S10•Na(II) uptake (neutrophils; Neutrophil stimulated with 1×10^−7 mol/L PMA, 3 hr, standing at 4° C.): 2.76 pmol/10^5 cells
ATX-S10•Na(II) uptake (neutrophils; Neutrophil stimulated with 1×10^−7 mol/L PMA, 20 hr, incubation at 37° C.): 7.33 pmol/10^5 cells
ATX-S10•Na(II) uptake (neutrophils; Neutrophil stimulated with 1×10^−7 mol/L PMA, 20 hr, standing at 4° C.): 1.09 pmol/10^5 cells
ATX-S10•Na(II) uptake (neutrophils; Neutrophil stimulated with 1×10^−7 mol/L fMLP, 3 hr, incubation at 37° C.): 0.79 pmol/10^5 cells
ATX-S10•Na(II) uptake (neutrophils; Neutrophil stimulated with 1×10^−7 mol/L fMLP, 3 hr, standing at 4° C.): 0.97 pmol/10^5 cells
ATX-S10•Na(II) uptake (neutrophils; Neutrophil stimulated with 1×10^−7 mol/L fMLP, 20 hr, incubation at 37° C.): 2.67 pmol/10^5 cells
ATX-S10•Na(II) uptake (neutrophils; Neutrophil stimulated with 1×10^−7 mol/L fMLP, 20 hr, standing at 4° C.): 0.50 pmol/10^5 cells
uptake after stimulation compared with unstimulated cells (neutrophils; neutrophils after stimulation with WILP or PMA): no increase in uptake
uptake compared between cell types (neutrophils; neutrophils versus EoL-1, THP-1 and A3/KAW cells): higher than EoL-1 cells, although not as high as THP-1 cells or A3/KAW cells
substantial uptake of ATX-S10•Na(II) (uptake at 37° C. minus uptake at 4° C.) (neutrophils; neutrophils, course over incubation time): increased with incubation time
substantial uptake of ATX-S10•Na(II) (uptake at 37° C. minus uptake at 4° C.) ([1]; A3/KAW cells, course over incubation time): increased with incubation time
ATX-S10•Na(II) uptake [1, 3]: 0.72 pmol/10^5 cells
ATX-S10•Na(II) uptake ([1]; 1 hr, incubation at 37° C.): 2.38 pmol/10^5 cells
ATX-S10•Na(II) uptake ([1]; 1 hr, standing at 4° C.): 1.16 pmol/10^5 cells
ATX-S10•Na(II) uptake ([1]; 3 hr, incubation at 37° C.): 3.79 pmol/10^5 cells
ATX-S10•Na(II) uptake ([1]; 3 hr, standing at 4° C.): 1.06 pmol/10^5 cells
ATX-S10•Na(II) uptake ([1]; 20 hr, incubation at 37° C.): 10.06 pmol/10^5 cells
ATX-S10•Na(II) uptake ([1]; 20 hr, standing at 4° C.): 1.44 pmol/10^5 cells
ATX-S10•Na(II) uptake ([1]; 44 hr, incubation at 37° C.): 27.64 pmol/10^5 cells
ATX-S10•Na(II) uptake ([1]; 44 hr, standing at 4° C.): 5.07 pmol/10^5 cells
ATX-S10•Na(II) uptake [2, 3]: 0.32 pmol/10^5 cells
ATX-S10•Na(II) uptake ([2]; 1 hr, incubation at 37° C.): 0.25 pmol/10^5 cells
ATX-S10•Na(II) uptake ([2]; 1 hr, standing at 4° C.): 0.30 pmol/10^5 cells
ATX-S10•Na(II) uptake ([2]; 3 hr, incubation at 37° C.): 0.48 pmol/10^5 cells
ATX-S10•Na(II) uptake ([2]; 3 hr, standing at 4° C.): 0.32 pmol/10^5 cells
ATX-S10•Na(II) uptake ([2]; 20 hr, incubation at 37° C.): 1.59 pmol/10^5 cells
ATX-S10•Na(II) uptake ([2]; 20 hr, standing at 4° C.): 0.36 pmol/10^5 cells
ATX-S10•Na(II) uptake ([2]; 44 hr, incubation at 37° C.): 3.09 pmol/10^5 cells
ATX-S10•Na(II) uptake ([2]; 44 hr, standing at 4° C.): 0.37 pmol/10^5 cells
uptake compared between cell types ([2]; EoL-1 cells versus THP-1, A3/KAW and KG-1 cells): fairly low value
substantial uptake of ATX-S10•Na(II) (uptake at 37° C. minus uptake at 4° C.) ([2]; EoL-1 cells, course over incubation time): increased with incubation time
